Each structure is given as a SMILES string.

For the assay, the target named is human ACC2 (Homo sapiens (Human), UniProt O00763). The assay is described as follows: ACC2 assay, spectrophotometric 384 well assay (NADH-linked, coupled lactate dehydrogenase/pyruvate kinase reaction). The format is biochemical. To be noted: hACC2 construct lacking the 128 N-terminal amino acids; 25° C., 340 nm, 15 minutes. On the procedure: Spectrophotometric 384 Well Assay
Sequence of human ACC2 (O00763 129-2458): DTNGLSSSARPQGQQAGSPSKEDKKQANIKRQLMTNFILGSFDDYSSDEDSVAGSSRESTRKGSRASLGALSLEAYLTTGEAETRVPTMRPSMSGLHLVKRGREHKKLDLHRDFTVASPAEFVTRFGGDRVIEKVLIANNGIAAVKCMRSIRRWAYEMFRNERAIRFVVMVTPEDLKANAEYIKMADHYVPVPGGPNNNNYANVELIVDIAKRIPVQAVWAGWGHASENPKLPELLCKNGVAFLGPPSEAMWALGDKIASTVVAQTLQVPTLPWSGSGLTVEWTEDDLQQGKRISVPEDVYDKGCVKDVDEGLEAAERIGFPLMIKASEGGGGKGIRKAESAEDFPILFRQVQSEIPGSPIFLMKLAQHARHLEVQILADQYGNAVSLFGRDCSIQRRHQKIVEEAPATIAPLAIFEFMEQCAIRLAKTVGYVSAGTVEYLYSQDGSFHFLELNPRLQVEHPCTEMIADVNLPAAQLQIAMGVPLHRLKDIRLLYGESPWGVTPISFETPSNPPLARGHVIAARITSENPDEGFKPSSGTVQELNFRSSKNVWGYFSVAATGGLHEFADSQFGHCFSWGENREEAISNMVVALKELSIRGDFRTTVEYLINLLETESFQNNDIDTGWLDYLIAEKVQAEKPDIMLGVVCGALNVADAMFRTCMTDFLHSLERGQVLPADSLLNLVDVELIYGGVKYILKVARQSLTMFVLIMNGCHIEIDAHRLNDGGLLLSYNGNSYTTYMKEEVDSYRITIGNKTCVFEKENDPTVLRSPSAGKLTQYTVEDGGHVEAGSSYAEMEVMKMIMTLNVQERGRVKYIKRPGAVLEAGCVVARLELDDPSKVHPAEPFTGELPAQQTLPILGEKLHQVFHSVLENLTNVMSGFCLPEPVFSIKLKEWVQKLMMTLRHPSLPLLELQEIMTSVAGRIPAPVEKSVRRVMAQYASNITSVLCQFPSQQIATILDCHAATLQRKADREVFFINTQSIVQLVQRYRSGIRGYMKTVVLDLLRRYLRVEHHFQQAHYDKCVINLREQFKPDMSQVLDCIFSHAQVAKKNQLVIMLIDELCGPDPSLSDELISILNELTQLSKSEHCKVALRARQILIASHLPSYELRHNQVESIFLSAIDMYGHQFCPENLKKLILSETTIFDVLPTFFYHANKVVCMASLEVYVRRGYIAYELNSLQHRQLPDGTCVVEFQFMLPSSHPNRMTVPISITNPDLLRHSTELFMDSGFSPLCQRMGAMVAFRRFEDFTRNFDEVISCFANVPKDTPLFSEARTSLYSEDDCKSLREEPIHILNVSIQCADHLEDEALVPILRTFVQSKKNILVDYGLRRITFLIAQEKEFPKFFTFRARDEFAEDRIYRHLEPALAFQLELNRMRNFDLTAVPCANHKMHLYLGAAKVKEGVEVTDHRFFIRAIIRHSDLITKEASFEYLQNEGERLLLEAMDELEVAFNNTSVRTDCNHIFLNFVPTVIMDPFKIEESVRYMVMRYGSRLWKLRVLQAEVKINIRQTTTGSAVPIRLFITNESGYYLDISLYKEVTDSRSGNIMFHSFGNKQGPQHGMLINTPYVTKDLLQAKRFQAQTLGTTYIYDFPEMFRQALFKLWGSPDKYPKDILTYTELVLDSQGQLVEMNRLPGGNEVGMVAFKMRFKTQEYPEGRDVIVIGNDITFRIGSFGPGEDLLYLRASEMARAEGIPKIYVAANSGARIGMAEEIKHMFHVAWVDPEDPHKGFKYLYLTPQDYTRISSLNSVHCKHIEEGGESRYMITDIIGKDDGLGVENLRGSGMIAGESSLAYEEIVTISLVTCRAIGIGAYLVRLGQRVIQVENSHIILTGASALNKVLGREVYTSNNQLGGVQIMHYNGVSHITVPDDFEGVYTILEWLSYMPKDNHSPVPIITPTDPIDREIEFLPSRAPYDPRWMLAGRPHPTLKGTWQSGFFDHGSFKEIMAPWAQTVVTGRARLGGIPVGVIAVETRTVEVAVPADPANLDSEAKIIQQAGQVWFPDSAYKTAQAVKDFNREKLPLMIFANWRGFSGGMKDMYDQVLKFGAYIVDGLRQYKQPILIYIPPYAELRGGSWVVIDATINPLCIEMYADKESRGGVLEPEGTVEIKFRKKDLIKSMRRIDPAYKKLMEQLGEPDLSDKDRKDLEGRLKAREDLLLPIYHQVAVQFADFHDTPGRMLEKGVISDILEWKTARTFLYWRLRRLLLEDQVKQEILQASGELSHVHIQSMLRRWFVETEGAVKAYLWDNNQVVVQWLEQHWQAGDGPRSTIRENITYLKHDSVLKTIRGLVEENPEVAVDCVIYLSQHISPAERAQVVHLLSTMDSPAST
Malonyl CoA formation by acetyl CoA carboxylases is stoichometrically linked to the consumption of ATP. ACC2 activity is measured in a NADH-linked kinetic method measuring ADP generated during the ACC reaction using a coupled lactate dehydrogenase/pyruvate kinase reaction.
For biological testing, a human ACC2 construct which lacks the 128 amino acids at the N-terminus for increased solubility (nt 385-6966 in Genbank entry AJ575592) is cloned. The protein is then expressed in insect cells using a baculoviral expression system. Protein purification is performed by anion exchange.
All compounds are dissolved in dimethyl sulfoxide (DMSO) to a concentration of 10 mM.
Assay reactions are then carried out in 384-well plates, with hACC2 in an appropriate dilution and at final assay concentrations (f.c.) of 100 mM Tris (pH 7.5), 10 mM trisodium citrate, 25 mM KHCC3, 10 mM MgCl2, 0.5 mg/ml BSA, 3.75 mM reduced L-glutathione, 15 U/ml lactate dehydrogenase, 0.5 mM phosphoenolpyruvate, 15 U/ml pyruvate kinase, compounds at different concentrations at final DMSO concentrations of 1%.
The enzymatic reaction is then started by addition of a mixture of NADH, acetyl Coenzyme A (both 200 μM f.c.) and ATP (500 uM f.c.). The decrease of the optical density (slope S) is then determined at 25° C. at a wavelength of 340 nm over 15 minutes in a spectrophotometric reader.
Each assay microtiter plate contains wells with vehicle instead of compound as controls for the non-inhibited enzyme (100% CTL; ‘HIGH’) and wells without acetyl-CoA as controls for non-specific NADH degradation (0% CTL; ‘LOW’).
The slope S is used for calculation of % CTL=(S(compound)−S(‘LOW’))/(S(‘HIGH’)−S(‘LOW’))*100. Compounds will give values between 100% CTL (no inhibition) and 0% CTL (complete inhibition).
For IC50 value determination, the sample slope in the presence of the test compound after subtraction of the low controls (S(compound)−S(‘LOW’)) are used.
An IC50 value is derived from the compound slopes at different dosages after subtraction of the low controls (S(compound)−S(‘LOW’)) by non-linear regression curve fitting (equation y=(A+((B−A)/(1+((C/x)^D))))).
In the following table the activity expressed as IC50 (μM) of compounds according to the invention is presented wherein the IC50 values are determined in the ACC2 assay as described hereinbefore. The term “Ex.” refers to the example numbers according to the following experimental section.
`CC(=O)Nc1nc(C)c(C(=O)N[C@@H](C)c2ccc(C3CN(c4ccc(OCC5CC5)cc4)C3)cc2)s1` [Example 3.04] had an IC50 of 250 nM.

`CC(=O)Nc1cncc(C(=O)NC(C)Cc2ccc(C3CN(c4ccc(OCC5CC5)cc4)C3)cc2)c1` (stereo not shown) [Example 3.05] returned an IC50 of 1730 nM.

Take `C=CCC(=O)NC(C)Cc1ccc(C2CN(c3ccc(OCC4CC4)cc3)C2)cc1` (stereo not shown) [Example 3.06]: it took 1070 nM to reach half-maximal inhibition (IC50).

With `CC(Cc1ccc(C2CN(c3ccc(OCC4CC4)cc3)C2)cc1)NC(=O)C1(C#N)CC1` (stereo not shown) [Example 3.07], the IC50 turned out to be 2580 nM.

`CCCC(=O)NC(C)Cc1ccc(C2CN(c3ccc(OCC4CC4)cc3)C2)cc1` (stereo not shown) [Example 3.08] had a concentration for half-maximal inhibition (IC50) of 3070 nM.

For `CC(Cc1ccc(C2CN(c3ccc(OCC4CC4)cc3)C2)cc1)NC(=O)C(C)F` (stereo not shown) [Example 3.09], half-maximal inhibition (IC50) required 2510 nM.

`CCC(=O)NC(C)Cc1ccc(C2CN(c3ccc(OCC4CC4)cc3)C2)cc1` (stereo not shown) [Example 3.10]: 890 nM corresponded to half-maximal inhibition (IC50).

Compound `CC(Cc1ccc(C2CN(c3ccc(OCC4CC4)cc3)C2)cc1)NC(=O)C(C)(F)F` (stereo not shown) [Example 3.11] showed an IC50 of 1450 nM. This IC50 lies about 1.6-fold higher than the previous one.

`CC(Cc1ccc(C2CN(c3ccc(OCC4CC4)cc3)C2)cc1)NC(=O)C(F)F` (stereo not shown) [Example 3.12] yielded an IC50 of 2730 nM. This IC50 is about 1.9-fold higher than that of the compound before.

In turn, `CC(Cc1ccc(C2CN(c3ccc(OCC4CC4)cc3)C2)cc1)NC(=O)Cc1cc[nH]c1` (stereo not shown) [Example 3.13] had an IC50 of 2970 nM.

For `CC(Cc1ccc(C2CN(c3ccc(OCC4CC4)cc3)C2)cc1)NC(=O)CF` (stereo not shown) [Example 3.14], the IC50 came out at 1770 nM. Against the preceding compound, the IC50 is about 1.7-fold lower.

Consider `CC(=O)Nc1nc(C)c(C(=O)NC(C)Cc2ccc(C3CN(c4ccc(OCC5CC5)cc4)C3)cc2)s1` (stereo not shown) [Example 3.15], for which inhibition was half-maximal at 1050 nM (IC50). Against the preceding compound, the IC50 is about 1.7-fold lower.

Turning to `COCC(=O)NC(C)Cc1ccc(C2CN(c3ccc(OCC4CC4)cc3)C2)cc1` (stereo not shown) [Example 3.16], half-maximal inhibition (IC50) required 3050 nM. Compared with the last compound, the IC50 is about 2.9-fold higher.

Regarding `Cc1nocc1C(=O)NC(C)Cc1ccc(C2CN(c3ccc(OCC4CC4)cc3)C2)cc1` (stereo not shown) [Example 3.17], the IC50 came out at 2790 nM. The IC50 values of the last two compounds are within 1.5-fold of each other.

As for `CC(Cc1ccc(C2CN(c3ccc(OCC4CC4)cc3)C2)cc1)NC(=O)CCC#N` (stereo not shown) [Example 3.18], half-maximal inhibition (IC50) was put at 3050 nM.

Compound `C=CCC(=O)NC(C)Cc1ccc(C2CN(c3ccc4c(c3)OCCO4)C2)cc1` (stereo not shown) [Example 3.19] showed an IC50 of 2880 nM.

The compound `C[C@H](NC(=O)C1CCOC1)c1ccc(C2CN(c3ccc(OCC4CC4)cc3)C2)cc1` (stereo partly shown) [Example 3.20] yielded an IC50 of 1020 nM.

With `C[C@H](NC(=O)Cc1cc[nH]c1)c1ccc(C2CN(c3ccc(OCC4CC4)cc3)C2)cc1` [Example 3.21], half-maximal inhibition (IC50) required 2960 nM.

The compound `CCOCC(=O)N[C@@H](C)c1ccc(C2CN(c3ccc(OCC4CC4)cc3)C2)cc1` [Example 3.22] gave an IC50 of 2580 nM.

`COC1CC(C(=O)N[C@@H](C)c2ccc(C3CN(c4ccc(OCC5CC5)cc4)C3)cc2)C1` (stereo partly shown) [Example 3.23] gave an IC50 of 2650 nM.

`C[C@H](NC(=O)Cc1cccnc1)c1ccc(C2CN(c3ccc(OCC4CC4)cc3)C2)cc1` [Example 3.24] returned an IC50 of 1670 nM.

The compound `Cc1ncsc1C(=O)N[C@@H](C)c1ccc(C2CN(c3ccc(OCC4CC4)cc3)C2)cc1` [Example 3.25] registered an IC50 of 3010 nM.

Regarding `C[C@H](NC(=O)C1(C)CC1)c1ccc(C2CN(c3ccc(OCC4CC4)cc3)C2)cc1` [Example 3.26], it took 2420 nM to reach half-maximal inhibition (IC50).

In the case of `C[C@H](NC(=O)C1CCCCO1)c1ccc(C2CN(c3ccc(OCC4CC4)cc3)C2)cc1` (stereo partly shown) [Example 3.27], inhibition was half-maximal at 2860 nM (IC50).

Turning to `CC(C#N)C(=O)N[C@@H](C)c1ccc(C2CN(c3ccc(OCC4CC4)cc3)C2)cc1` (stereo partly shown) [Example 3.28], half-maximal inhibition (IC50) required 1210 nM.

In the case of `C[C@H](NC(=O)Cn1cncn1)c1ccc(C2CN(c3ccc(OCC4CC4)cc3)C2)cc1` [Example 3.29], inhibition was half-maximal at 1670 nM (IC50).

Turning to `COCCC(=O)N[C@@H](C)c1ccc(C2CN(c3ccc(OCC4CC4)cc3)C2)cc1` [Example 3.30], the IC50 was 2060 nM.

For the compound `CC(=O)Nc1nc(C(=O)N[C@@H](C)c2ccc(C3CN(c4ccc(OCC5CC5)cc4)C3)cc2)cs1` [Example 3.31], it took 1640 nM to reach half-maximal inhibition (IC50). The IC50 values of the last two compounds are within 1.5-fold of each other.

`CC(C)C(=O)N[C@@H](C)c1ccc(C2CN(c3ccc(OCC4CC4)cc3)C2)cc1` [Example 3.32] gave an IC50 of 1760 nM.

On to `C[C@H](NC(=O)C1CC(F)C1)c1ccc(C2CN(c3ccc4c(c3)OCCO4)C2)cc1` (stereo partly shown) [Example 3.33], for which half-maximal inhibition (IC50) was put at 2870 nM.

In the case of `C[C@H](NC(=O)C1CNC(=O)C1)c1ccc(C2CN(c3ccc(OCC4CC4)cc3)C2)cc1` (stereo partly shown) [Example 3.34], the IC50 worked out at 2730 nM. This IC50 and that of the compound before are within 1.5-fold of each other.

On to `C[C@H](NC(=O)C1(C#N)CC1)c1ccc(C2CN(c3ccc(OCC4CC4)cc3)C2)cc1` [Example 3.35], for which the IC50 turned out to be 1460 nM.

`CC(=O)Nc1cccc(C(=O)N[C@@H](C)c2ccc(C3CN(c4ccc(OCC5CC5)cc4)C3)cc2)c1` [Example 3.36] had an IC50 of 2190 nM.

For `C[C@H](NC(=O)C1CC(F)C1)c1ccc(C2CN(c3ccc(OCC4CC4)cc3)C2)cc1` (stereo partly shown) [Example 3.37], the IC50 amounted to 1170 nM.

Consider `Cc1nc(C(=O)N[C@@H](C)c2ccc(C3CN(c4ccc(OCC5CC5)cc4)C3)cc2)c(C)s1` [Example 3.38], for which half-maximal inhibition (IC50) required 1410 nM.

`C[C@H](NC(=O)c1ccns1)c1ccc(C2CN(c3ccc(OCC4CC4)cc3)C2)cc1` [Example 3.39] had an IC50 of 1520 nM.

`Cc1ncc(C(=O)N[C@@H](C)c2ccc(C3CN(c4ccc(OCC5CC5)cc4)C3)cc2)s1` [Example 3.40] yielded an IC50 of 1310 nM.

Consider `CC(=O)NCCCC(=O)N[C@@H](C)c1ccc(C2CN(c3ccc(OCC4CC4)cc3)C2)cc1` [Example 3.41], for which inhibition was half-maximal at 2070 nM (IC50).

`CCC(=O)N[C@@H](C)c1ccc(C2CN(c3ccc(OCC4CC4)cc3)C2)cc1` [Example 3.42]: the IC50 turned out to be 940 nM.

Compound `Cc1ccc(C(=O)N[C@@H](C)c2ccc(C3CN(c4ccc(OCC5CC5)cc4)C3)cc2)o1` [Example 3.43] came in with an IC50 of 2570 nM.

In turn, `C[C@H](NC(=O)c1cnco1)c1ccc(C2CN(c3ccc4c(c3)OCCO4)C2)cc1` [Example 3.44] came in with an IC50 of 1130 nM.

As for `C[C@H](NC(=O)C(C)(C)F)c1ccc(C2CN(c3ccc(OCC4CC4)cc3)C2)cc1` [Example 3.46], 1150 nM corresponded to half-maximal inhibition (IC50).

Regarding `CC(C(=O)N[C@@H](C)c1ccc(C2CN(c3ccc(OCC4CC4)cc3)C2)cc1)C(F)(F)F` (stereo partly shown) [Example 3.47], the midpoint of inhibition, the IC50, lay at 2700 nM. This IC50 lies about 2.3-fold higher than the previous one.

`C[C@H](NC(=O)Cc1cncnc1)c1ccc(C2CN(c3ccc(OCC4CC4)cc3)C2)cc1` [Example 3.48] yielded an IC50 of 1100 nM.

The compound `CC(=O)Nc1ncc(C(=O)N[C@@H](C)c2ccc(C3CN(c4ccc(OCC5CC5)cc4)C3)cc2)s1` [Example 3.49] displayed an IC50 of 1690 nM.

Compound `COCC(=O)N[C@@H](C)c1ccc(C2CN(c3ccc(OCC4CC4)cc3)C2)cc1` [Example 3.50] registered an IC50 of 2170 nM.

Regarding `CC(=O)Nc1cncc(C(=O)N[C@@H](C)c2ccc(C3CN(c4ccc(OCC5CC5)cc4)C3)cc2)c1` [Example 3.51], half-maximal inhibition (IC50) required 2180 nM.

With `C[C@H](NC(=O)c1cnco1)c1ccc(C2CN(c3ccc(OCC4CC4)cc3)C2)cc1` [Example 3.52], the IC50 amounted to 710 nM.

The compound `C#CCCC(=O)N[C@@H](C)c1ccc(C2CN(c3ccc(OCC4CC4)cc3)C2)cc1` [Example 3.53] registered an IC50 of 2380 nM.

`CC(=O)Nc1nc(C(=O)N[C@@H](C)c2ccc(C3CN(c4ccc(OCC5CC5)cc4)C3)cc2)co1` [Example 3.54] came in with an IC50 of 2360 nM.

As for `CC(F)C(=O)N[C@@H](C)c1ccc(C2CN(c3ccc(OCC4CC4)cc3)C2)cc1` (stereo partly shown) [Example 3.55], it took 1330 nM to reach half-maximal inhibition (IC50).

For `C[C@H](NC(=O)C1CC1)c1ccc(C2CN(c3ccc(OCC4CC4)cc3)C2)cc1` [Example 3.56], the IC50 turned out to be 700 nM.

With `C[C@H](NC(=O)c1cncs1)c1ccc(C2CN(c3ccc4c(c3)OCCO4)C2)cc1` [Example 3.57], the IC50 was 1650 nM.

The compound `C[C@H](NC(=O)c1ccnnc1)c1ccc(C2CN(c3ccc(OCC4CC4)cc3)C2)cc1` [Example 3.58] yielded an IC50 of 3010 nM. This IC50 is about 1.8-fold higher than that of the compound before.

`CC(=O)Nc1cc(C(=O)N[C@@H](C)c2ccc(C3CN(c4ccc(OCC5CC5)cc4)C3)cc2)ccn1` [Example 3.59] displayed a concentration for half-maximal inhibition (IC50) of 780 nM.

Regarding `Cc1cc(CC(=O)N[C@@H](C)c2ccc(C3CN(c4ccc(OCC5CC5)cc4)C3)cc2)on1` [Example 3.60], the midpoint of inhibition, the IC50, lay at 1170 nM.

Take `CC(F)C(=O)N[C@@H](C)c1ccc(C2CN(c3ccc4c(c3)OCCO4)C2)cc1` (stereo partly shown) [Example 3.61]: the IC50 came to 2520 nM.

As for `CC(Cc1ccc(C2CN(c3ccc(OCC4CC4)cc3)C2)cc1)NC(=O)C1CCC1` (stereo not shown) [Example 3.62], the IC50 is 2910 nM.

The term IC50 denotes the concentration needed to halve the response being measured.

Values taken from US8623860B2, “Azetidine derivatives, pharmaceutical compositions and uses thereof” (Boehringer Ingelheim International GmbH, priority 2011, dated 2014).
